Laboratory results as given in ChEMBL document CHEMBL1137734, “2D- and 3D-QSAR of tocainide and mexiletine analogues acting as Na(v)1.4 channel blockers” (Eur J Med Chem, 2009).

Biological target: Sodium channel protein type 4 subunit alpha (Homo sapiens, UniProt P35499)
Test: Inhibition of Nav1.4 ion channel assessed as reduction in cumulative sodium current

Chain of Sodium channel protein type 4 subunit alpha (P35499 whole entry): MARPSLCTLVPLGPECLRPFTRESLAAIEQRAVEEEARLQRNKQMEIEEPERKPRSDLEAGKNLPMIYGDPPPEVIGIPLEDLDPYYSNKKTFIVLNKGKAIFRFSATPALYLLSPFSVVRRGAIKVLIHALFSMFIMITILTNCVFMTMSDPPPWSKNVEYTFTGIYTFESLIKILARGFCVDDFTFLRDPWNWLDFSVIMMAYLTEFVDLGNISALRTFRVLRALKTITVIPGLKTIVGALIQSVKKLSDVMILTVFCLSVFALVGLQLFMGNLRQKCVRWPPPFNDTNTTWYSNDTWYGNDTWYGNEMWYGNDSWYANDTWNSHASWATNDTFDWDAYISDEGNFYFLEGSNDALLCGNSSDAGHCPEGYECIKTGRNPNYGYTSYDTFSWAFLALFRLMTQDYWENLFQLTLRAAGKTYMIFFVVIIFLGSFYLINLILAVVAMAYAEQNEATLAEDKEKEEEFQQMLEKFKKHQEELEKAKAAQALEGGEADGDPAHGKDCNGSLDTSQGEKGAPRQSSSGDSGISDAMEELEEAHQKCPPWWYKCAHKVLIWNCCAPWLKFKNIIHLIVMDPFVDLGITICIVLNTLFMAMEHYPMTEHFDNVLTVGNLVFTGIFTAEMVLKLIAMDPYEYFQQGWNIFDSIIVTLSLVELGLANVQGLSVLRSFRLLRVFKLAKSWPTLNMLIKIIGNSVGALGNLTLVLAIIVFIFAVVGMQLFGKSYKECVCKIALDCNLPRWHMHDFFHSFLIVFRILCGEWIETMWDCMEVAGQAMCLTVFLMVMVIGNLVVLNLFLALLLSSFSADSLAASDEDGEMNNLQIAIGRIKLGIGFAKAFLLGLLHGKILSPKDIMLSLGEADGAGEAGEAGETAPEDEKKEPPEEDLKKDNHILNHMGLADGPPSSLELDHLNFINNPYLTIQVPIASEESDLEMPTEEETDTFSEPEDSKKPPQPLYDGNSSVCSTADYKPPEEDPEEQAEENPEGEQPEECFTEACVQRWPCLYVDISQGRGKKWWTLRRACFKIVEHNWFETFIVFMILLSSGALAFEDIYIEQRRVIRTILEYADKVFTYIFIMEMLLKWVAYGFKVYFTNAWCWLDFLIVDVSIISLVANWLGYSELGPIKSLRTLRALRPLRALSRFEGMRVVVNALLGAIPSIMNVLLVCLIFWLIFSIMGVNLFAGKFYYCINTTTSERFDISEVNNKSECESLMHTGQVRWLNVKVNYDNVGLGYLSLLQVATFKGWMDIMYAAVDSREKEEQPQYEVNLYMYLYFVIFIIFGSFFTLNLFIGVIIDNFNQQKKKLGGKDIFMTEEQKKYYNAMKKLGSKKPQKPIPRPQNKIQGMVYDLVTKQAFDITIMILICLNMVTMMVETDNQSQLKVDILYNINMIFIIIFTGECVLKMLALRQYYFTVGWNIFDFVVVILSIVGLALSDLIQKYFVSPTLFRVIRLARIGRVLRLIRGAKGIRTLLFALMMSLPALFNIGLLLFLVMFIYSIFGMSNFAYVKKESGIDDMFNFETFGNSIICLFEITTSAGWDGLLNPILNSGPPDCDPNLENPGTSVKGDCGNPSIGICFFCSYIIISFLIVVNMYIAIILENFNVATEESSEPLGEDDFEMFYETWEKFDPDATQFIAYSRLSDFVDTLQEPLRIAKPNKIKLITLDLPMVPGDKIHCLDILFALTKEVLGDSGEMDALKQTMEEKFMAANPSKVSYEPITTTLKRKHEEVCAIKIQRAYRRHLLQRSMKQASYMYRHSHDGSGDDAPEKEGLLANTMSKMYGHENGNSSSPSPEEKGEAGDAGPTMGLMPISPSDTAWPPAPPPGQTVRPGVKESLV

SMILES	EC50 [µM]
Cc1cc(Cl)cc(C)c1OC[C@H](N)c1ccccc1	19.5
Cc1cc(Cl)ccc1OC[C@H](N)c1ccccc1	15.1
N[C@H](COc1ccccc1)c1ccccc1	15.8
Cc1cccc(C)c1OC[C@H](C)CN	23.4
Cc1cccc(C)c1NC(=O)[C@@H]1CCCN1	40.7
Cc1cccc(C)c1NC(=O)[C@H]1CCCN1C	67.6
Cc1cccc(C)c1NC(=O)[C@@H]1CCCN1C	28.2
Cc1cccc(C)c1N(C)C(=O)[C@H]1CCCN1C	501
Cc1cccc(C)c1N(C)C(=O)[C@H]1CCCN1	219
Cc1cccc(C)c1N(C)C(=O)[C@@H]1CCCN1	67.6
Cc1cccc(C)c1N(C)C(=O)[C@@H]1CCCN1C	200
Cc1cccc(C)c1OC[C@@H](C)CN	17.4
Cc1cc(Cl)ccc1OC[C@@H](N)Cc1ccccc1	22.9
Cc1cccc(C)c1N1CN2CCC[C@@H]2C1=O	501
Cc1cccc(C)c1NC(=O)[C@H]1CCCN1Cc1ccccc1	31.6
Cc1cccc(C)c1OC[C@@H](C)N [(R)-MEXILETINE]	22.9
Cc1cccc(C)c1NC(=O)[C@@H](C)N [(R)-TOCAINIDE]	275
Cc1cccc(C)c1OC[C@H](C)N [(S)-MEXILETINE]	26.9
Cc1cccc(C)c1NC(=O)[C@H](C)N [S-TOCAINIDE]	224

The next compounds have a lower EC50 than those just listed; values first:

EC50 [µM]	SMILES
7.94	Cc1cc(Cl)cc(C)c1OC[C@@H](N)c1ccccc1
3.98	N[C@@H](COc1ccccc1)c1ccccc1
3.02	N[C@H](COc1ccc(Cl)cc1)c1ccccc1
3.02	Cc1cccc(C)c1OC[C@H](N)c1ccccc1
3.02	Cc1cccc(C)c1OC[C@@H](N)c1ccccc1
1.91	Cc1cccc(C)c1SC[C@@H](C)CN
5.75	Cc1cccc(C)c1OC[C@H](N)C(C)C
2.69	Cc1cccc(C)c1SC[C@H](C)CN
4.68	Cc1cccc(C)c1SC[C@@H](N)c1ccccc1
11.2	Cc1cccc(C)c1NC(=O)[C@@H](C)NCc1ccccc1
9.12	Cc1cccc(C)c1NC(=O)[C@H](C)NCc1ccccc1
7.08	Cc1cccc(C)c1SC[C@H](N)c1ccccc1
10	Cc1cccc(C)c1NC(=O)[C@@H]1CCCN1Cc1ccccc1
1.7	Cc1cccc(C)c1NC(=O)[C@@H]1CCN(Cc2ccccc2)C1
3.72	Cc1cc(Cl)cc(C)c1OC[C@H](C)CN
2.29	Cc1cccc(C)c1NC(=O)[C@H]1CCN(Cc2ccccc2)C1
2.4	Cc1cccc(C)c1OC[C@H](N)Cc1ccccc1
2.88	Cc1cc(Cl)cc(C)c1OC[C@@H](C)CN
12	Cc1cccc(C)c1NC(=O)[C@H]1CCCN1
5.75	Cc1cccc(C)c1OC[C@@H](N)C(C)C (racemic)
